According to publication doi:10.1101/2020.07.01.182642v1 (biorxiv, 2020):
Each block holds one molecule with its values, some of them ahead of it.

Key:
Conditions in all cases: binder
[1] = molecular target: STK33 (Homo sapiens, UniProt Q9BYT3)
[2] = molecular target: CAMK2A (Homo sapiens, UniProt Q9UQM7)
[3] = molecular target: RPS6KA6 (Homo sapiens, UniProt Q9UK32)
[4] = molecular target: MAP2K2 (Homo sapiens, UniProt P36507)
[5] = molecular target: STK10 (Homo sapiens, UniProt O94804)
[6] = molecular target: STK39 (Homo sapiens, UniProt Q9UEW8)
[7] = molecular target: CDKL1 (Homo sapiens, UniProt Q00532)
[8] = molecular target: LYN (Homo sapiens, UniProt P07948)
[9] = molecular target: PLK1 (Homo sapiens, UniProt P53350)
[10] = molecular target: PAK4 (Homo sapiens, UniProt O96013)
[11] = molecular target: CAMK1D (Homo sapiens, UniProt Q8IU85)
[12] = molecular target: PRKAA1 (Homo sapiens, UniProt Q13131)
[13] = molecular target: T1, BMX (Homo sapiens, UniProt P51813)
T1 sequence (P51813 1-675): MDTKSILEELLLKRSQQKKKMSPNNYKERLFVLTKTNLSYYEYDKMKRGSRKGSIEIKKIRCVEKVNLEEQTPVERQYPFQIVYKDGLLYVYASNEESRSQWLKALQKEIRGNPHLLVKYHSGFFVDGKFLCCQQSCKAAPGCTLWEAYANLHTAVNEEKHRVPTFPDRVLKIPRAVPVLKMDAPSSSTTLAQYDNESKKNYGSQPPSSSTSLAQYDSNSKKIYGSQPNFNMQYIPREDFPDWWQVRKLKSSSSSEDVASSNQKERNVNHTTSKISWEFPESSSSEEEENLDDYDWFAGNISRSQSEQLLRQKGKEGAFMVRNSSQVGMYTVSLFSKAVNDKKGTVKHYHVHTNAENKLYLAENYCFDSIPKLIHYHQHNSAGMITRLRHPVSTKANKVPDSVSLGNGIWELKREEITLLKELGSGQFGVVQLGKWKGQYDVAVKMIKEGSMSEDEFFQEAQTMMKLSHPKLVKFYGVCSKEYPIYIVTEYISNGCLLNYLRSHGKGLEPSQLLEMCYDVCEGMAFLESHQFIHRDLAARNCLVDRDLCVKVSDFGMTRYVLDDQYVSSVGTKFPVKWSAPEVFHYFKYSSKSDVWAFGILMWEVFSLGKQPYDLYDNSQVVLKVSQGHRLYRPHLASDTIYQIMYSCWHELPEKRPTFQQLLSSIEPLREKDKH

[14] = molecular target: RPS6KA1 (Homo sapiens, UniProt Q15418)
[15] = molecular target: CSNK2A2 (Homo sapiens, UniProt P19784)
[16] = molecular target: T2, PKMYT1 (Homo sapiens, UniProt Q99640)
T2 sequence (Q99640 1-499): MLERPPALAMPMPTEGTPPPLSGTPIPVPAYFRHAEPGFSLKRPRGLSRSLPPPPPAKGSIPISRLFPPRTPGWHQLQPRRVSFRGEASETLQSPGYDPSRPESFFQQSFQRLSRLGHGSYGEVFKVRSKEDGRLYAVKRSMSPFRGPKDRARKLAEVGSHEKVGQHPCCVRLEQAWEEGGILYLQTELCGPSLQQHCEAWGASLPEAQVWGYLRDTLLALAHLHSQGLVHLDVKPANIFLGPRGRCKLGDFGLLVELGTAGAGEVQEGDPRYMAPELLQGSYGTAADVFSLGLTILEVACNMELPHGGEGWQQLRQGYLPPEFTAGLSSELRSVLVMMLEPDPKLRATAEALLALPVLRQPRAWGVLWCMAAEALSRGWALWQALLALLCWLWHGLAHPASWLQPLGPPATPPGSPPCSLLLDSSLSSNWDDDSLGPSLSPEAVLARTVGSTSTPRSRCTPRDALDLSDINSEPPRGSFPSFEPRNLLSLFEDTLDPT

[17] = molecular target: STK38L (Homo sapiens, UniProt Q9Y2H1)
[18] = molecular target: PAK7 (Homo sapiens, UniProt Q9P286)
[19] = molecular target: MAPK9 (Homo sapiens, UniProt P45984)
[20] = molecular target: FES (Homo sapiens, UniProt P07332)

PAK7, sequence (Q9P286 whole entry): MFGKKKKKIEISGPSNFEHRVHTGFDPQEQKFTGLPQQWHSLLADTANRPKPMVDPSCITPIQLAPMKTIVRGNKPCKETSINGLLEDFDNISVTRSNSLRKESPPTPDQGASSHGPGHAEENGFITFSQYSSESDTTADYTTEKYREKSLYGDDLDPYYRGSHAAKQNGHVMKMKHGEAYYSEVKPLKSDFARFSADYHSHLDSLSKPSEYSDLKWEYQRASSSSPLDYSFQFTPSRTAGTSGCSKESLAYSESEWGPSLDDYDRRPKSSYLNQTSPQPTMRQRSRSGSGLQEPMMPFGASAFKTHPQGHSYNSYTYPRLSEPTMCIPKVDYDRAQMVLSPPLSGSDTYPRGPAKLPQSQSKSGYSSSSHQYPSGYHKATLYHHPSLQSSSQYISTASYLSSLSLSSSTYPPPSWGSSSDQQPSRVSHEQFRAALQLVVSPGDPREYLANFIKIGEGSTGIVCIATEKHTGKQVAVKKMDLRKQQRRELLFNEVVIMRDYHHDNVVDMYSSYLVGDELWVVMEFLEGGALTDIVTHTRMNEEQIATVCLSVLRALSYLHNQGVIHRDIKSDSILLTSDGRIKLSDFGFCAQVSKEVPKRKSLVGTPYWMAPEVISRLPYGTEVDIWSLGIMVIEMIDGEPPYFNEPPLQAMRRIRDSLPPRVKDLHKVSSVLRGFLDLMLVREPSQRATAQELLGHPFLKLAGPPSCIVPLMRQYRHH
PRKAA1, sequence (Q13131 whole entry): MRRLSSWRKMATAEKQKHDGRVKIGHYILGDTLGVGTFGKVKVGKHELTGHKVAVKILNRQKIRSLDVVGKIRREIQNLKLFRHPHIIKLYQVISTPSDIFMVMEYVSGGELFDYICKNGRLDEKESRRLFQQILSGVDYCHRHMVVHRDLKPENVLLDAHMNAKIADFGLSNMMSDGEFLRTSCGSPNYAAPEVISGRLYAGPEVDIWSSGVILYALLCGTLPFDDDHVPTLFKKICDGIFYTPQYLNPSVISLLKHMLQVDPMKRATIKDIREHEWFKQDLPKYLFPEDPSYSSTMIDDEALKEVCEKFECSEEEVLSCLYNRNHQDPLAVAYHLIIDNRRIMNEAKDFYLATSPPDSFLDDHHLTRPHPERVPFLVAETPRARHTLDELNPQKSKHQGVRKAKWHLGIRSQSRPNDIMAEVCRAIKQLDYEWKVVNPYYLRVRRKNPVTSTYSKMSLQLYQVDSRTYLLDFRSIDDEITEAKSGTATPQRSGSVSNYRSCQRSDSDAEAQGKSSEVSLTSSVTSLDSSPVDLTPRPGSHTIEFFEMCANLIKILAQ
CAMK2A, sequence (Q9UQM7 whole entry): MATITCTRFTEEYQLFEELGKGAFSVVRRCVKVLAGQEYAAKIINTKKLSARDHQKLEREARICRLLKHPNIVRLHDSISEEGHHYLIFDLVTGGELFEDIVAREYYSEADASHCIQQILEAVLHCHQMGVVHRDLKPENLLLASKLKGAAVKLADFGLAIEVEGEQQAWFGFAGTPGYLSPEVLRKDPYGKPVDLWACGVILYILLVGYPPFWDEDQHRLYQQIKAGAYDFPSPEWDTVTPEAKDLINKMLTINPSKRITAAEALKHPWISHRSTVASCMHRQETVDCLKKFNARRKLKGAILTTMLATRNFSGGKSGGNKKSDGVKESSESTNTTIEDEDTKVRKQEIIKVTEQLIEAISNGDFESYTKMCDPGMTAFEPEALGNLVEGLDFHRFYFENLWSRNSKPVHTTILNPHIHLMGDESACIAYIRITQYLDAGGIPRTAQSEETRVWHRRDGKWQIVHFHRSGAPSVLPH
CAMK1D, sequence (Q8IU85 whole entry): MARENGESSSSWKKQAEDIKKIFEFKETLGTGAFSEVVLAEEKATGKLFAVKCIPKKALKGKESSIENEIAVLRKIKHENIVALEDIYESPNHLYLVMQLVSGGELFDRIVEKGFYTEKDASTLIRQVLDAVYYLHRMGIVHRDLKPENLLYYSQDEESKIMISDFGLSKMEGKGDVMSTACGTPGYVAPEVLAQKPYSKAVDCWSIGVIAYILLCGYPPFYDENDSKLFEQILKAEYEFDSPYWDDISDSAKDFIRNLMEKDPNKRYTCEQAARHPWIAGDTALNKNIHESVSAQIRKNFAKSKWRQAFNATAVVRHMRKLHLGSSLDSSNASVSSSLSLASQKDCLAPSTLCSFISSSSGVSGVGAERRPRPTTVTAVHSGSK
RPS6KA1, sequence (Q15418 whole entry): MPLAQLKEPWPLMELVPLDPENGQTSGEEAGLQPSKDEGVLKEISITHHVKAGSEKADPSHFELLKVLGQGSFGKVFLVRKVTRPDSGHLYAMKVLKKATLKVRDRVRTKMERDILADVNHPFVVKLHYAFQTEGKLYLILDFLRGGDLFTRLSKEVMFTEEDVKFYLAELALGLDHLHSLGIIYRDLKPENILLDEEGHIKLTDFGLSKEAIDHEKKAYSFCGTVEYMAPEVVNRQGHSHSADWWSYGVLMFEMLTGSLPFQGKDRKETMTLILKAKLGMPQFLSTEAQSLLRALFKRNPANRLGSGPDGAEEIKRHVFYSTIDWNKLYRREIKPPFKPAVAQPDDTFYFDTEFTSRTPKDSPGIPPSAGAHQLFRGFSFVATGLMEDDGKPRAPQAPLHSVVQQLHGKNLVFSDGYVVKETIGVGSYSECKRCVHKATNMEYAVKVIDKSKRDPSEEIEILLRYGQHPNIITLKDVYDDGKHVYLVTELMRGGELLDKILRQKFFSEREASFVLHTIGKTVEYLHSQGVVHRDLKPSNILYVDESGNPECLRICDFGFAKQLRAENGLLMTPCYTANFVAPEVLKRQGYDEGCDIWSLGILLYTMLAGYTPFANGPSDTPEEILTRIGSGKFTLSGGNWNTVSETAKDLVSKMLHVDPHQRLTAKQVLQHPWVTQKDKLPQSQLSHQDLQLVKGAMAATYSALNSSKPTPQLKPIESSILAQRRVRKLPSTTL
CDKL1, sequence (Q00532 whole entry): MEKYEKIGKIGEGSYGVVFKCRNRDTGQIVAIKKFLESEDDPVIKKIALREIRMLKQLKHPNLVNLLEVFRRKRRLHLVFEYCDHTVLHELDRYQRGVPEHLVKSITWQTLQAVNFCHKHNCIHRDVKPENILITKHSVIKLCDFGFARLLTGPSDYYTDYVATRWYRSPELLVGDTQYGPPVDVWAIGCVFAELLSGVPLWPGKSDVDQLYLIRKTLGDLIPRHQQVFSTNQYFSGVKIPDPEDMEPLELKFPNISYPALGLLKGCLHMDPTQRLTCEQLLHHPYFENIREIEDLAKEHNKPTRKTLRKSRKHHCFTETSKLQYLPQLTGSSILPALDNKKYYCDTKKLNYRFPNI
LYN, sequence (P07948 whole entry): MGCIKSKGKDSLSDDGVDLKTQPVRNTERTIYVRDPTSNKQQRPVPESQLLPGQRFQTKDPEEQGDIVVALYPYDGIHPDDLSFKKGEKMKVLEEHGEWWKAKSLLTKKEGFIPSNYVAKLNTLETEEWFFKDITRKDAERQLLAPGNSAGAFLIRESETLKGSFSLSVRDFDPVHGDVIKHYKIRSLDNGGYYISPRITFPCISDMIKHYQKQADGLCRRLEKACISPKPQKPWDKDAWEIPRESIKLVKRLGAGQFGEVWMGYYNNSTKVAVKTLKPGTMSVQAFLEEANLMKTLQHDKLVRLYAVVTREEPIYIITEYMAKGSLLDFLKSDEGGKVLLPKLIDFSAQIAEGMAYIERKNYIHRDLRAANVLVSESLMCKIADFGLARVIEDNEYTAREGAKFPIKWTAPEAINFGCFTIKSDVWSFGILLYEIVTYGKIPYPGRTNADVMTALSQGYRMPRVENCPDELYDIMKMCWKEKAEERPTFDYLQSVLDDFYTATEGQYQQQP
MAP2K2, sequence (P36507 whole entry): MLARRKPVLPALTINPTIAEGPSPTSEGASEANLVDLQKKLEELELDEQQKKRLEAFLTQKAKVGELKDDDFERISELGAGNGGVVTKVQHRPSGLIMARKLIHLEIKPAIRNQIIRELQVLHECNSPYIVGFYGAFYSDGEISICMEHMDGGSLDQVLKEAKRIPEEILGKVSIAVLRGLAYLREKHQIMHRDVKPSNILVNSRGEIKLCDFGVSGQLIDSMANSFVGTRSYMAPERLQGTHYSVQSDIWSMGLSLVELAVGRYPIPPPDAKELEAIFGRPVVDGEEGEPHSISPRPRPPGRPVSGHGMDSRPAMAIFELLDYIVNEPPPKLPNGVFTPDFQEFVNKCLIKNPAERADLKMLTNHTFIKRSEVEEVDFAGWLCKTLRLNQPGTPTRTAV
PAK4, sequence (O96013 whole entry): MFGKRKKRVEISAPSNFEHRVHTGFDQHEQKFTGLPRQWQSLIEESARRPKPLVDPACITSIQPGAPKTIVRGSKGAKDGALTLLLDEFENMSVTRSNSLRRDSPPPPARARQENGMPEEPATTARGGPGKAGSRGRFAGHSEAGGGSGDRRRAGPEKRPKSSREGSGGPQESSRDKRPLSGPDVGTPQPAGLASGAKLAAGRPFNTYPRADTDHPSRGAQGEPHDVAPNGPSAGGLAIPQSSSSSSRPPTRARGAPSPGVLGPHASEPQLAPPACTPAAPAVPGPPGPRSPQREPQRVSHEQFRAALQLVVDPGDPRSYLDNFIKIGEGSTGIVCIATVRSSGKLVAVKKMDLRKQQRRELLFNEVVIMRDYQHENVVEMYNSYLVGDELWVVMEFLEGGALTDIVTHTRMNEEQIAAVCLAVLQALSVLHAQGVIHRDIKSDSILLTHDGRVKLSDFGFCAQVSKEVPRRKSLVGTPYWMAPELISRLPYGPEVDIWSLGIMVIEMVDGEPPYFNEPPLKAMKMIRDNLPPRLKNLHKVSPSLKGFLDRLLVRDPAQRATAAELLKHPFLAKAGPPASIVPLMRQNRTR

ΔTm 1 [1]: 3.1 °C
ΔTm inhibitor 1 [2]: 0.5 °C
ΔTm inhibitor 1 [3]: 4.2 °C
ΔTm inhibitor 1 [4]: 2 °C
ΔTm inhibitor 1 [5]: 3.3 °C
ΔTm inhibitor 1 [6]: 0.8 °C
ΔTm inhibitor 1 [7]: 0.2 °C
ΔTm inhibitor 1 [8]: 2.4 °C
ΔTm inhibitor 1 [9]: 2.0 °C
ΔTm inhibitor 1 [10]: 1.5 °C
ΔTm inhibitor 1 [11]: 0.6 °C
ΔTm inhibitor 1 [12]: 1.3 °C
ΔTm inhibitor 1 [13]: 0.4 °C
ΔTm inhibitor 1 [14]: 5.2 °C
ΔTm inhibitor 1 [15]: 3.3 °C
ΔTm inhibitor 1 [16]: 0.9 °C
ΔTm inhibitor 1 [17]: 0.4 °C
ΔTm inhibitor 1 [18]: 0.4 °C
ΔTm inhibitor 1 [19]: 0.8 °C
ΔTm inhibitor 1 [20]: 0.6 °C
SMILES: CC(=O)c1cccc(-c2cnc3ccc(NCC4CC4)nn23)c1 [compound 1, K00135]

ΔTm 2 [1]: 0.6 °C
ΔTm inhibitor 2 [2]: -0.1 °C
ΔTm inhibitor 2 [3]: 0.4 °C
ΔTm inhibitor 2 [4]: 0.5 °C
ΔTm inhibitor 2 [5]: 0.8 °C
ΔTm inhibitor 2 [6]: 0.5 °C
ΔTm inhibitor 2 [7]: 0.4 °C
ΔTm inhibitor 2 [8]: 0.1 °C
ΔTm inhibitor 2 [9]: 0.3 °C
ΔTm inhibitor 2 [10]: 1.7 °C
ΔTm inhibitor 2 [11]: 0.0 °C
ΔTm inhibitor 2 [12]: -0.3 °C
ΔTm inhibitor 2 [13]: -0.1 °C
ΔTm inhibitor 2 [14]: 0.6 °C
ΔTm inhibitor 2 [15]: 2.6 °C
ΔTm inhibitor 2 [16]: -0.6 °C
ΔTm inhibitor 2 [17]: 0.3 °C
ΔTm inhibitor 2 [18]: -0.1 °C
ΔTm inhibitor 2 [19]: 0.4 °C
ΔTm inhibitor 2 [20]: -0.1 °C
SMILES: CCN1/C(=C/C(C)=O)Sc2ccc(OC)cc21 [compound 2, TG003]

ΔTm 4 [1]: 2.4 °C
ΔTm inhibitor 4 [2]: 0.1 °C
ΔTm inhibitor 4 [3]: 2.1 °C
ΔTm inhibitor 4 [4]: 0.1 °C
ΔTm inhibitor 4 [5]: 1.9 °C
ΔTm inhibitor 4 [6]: 0.0 °C
ΔTm inhibitor 4 [7]: 0.8 °C
ΔTm inhibitor 4 [8]: 0.3 °C
ΔTm inhibitor 4 [9]: 0.4 °C
ΔTm inhibitor 4 [10]: 1.5 °C
ΔTm inhibitor 4 [11]: 0.2 °C
ΔTm inhibitor 4 [12]: 0.5 °C
ΔTm inhibitor 4 [13]: 0.4 °C
ΔTm inhibitor 4 [14]: 0.6 °C
ΔTm inhibitor 4 [15]: 0.9 °C
ΔTm inhibitor 4 [16]: 0.1 °C
ΔTm inhibitor 4 [17]: 0.9 °C
ΔTm inhibitor 4 [18]: 0.6 °C
ΔTm inhibitor 4 [19]: 0.9 °C
ΔTm inhibitor 4 [20]: 0.3 °C
SMILES: Nc1nccc(-c2ccc3noc(-c4ccc(Cl)cc4)c3c2)n1 [compound 4, K00972]
